Counter-ions that a name gives are not always drawn. Starred links: 1 amine or outer side, 2 acyl side, 3 side chain; linkers in the order of their positions; H or OH if unused. Positions of bridges follow the written chain, without caps; N, C: chain ends. Non-standard residues stand in square brackets, D forms with d. Residues, ends and D or L forms follow the SMILES beside them. Groups on a side chain read outwards from the residue. *: point of attachment. X68 = COCCOCCOCCOCCOCCOCCC(=O)N(CCCC[C@@H](N[*:1])C(=O)[*:2])C(C)=O; Me3N+(CH2)2O(CH2)2O(CH2)2CO = C[N+](C)(C)CCOCCOCCC(=O)*; CH2CH2OCH2CH2OCH2CH2NMe3+ = C[N+](C)(C)CCOCCOCC*; Phe(4-N3) = [N-]=[N+]=Nc1ccc(C[C@H](N)C(=O)O)cc1; Trp(7-Me) = Cc1cccc2c(C[C@H](N)C(=O)O)c[nH]c12; X23 = Cn1nnc(CC[C@H](N[*:1])C(=O)[*:2])n1; 3Pal(5-Me) = Cc1cncc(C[C@H](N)C(=O)O)c1; γGlu = O=C(O)[C@H](CCC(=O)[*:2])N[*:1]; 2Nal = N[C@@H](Cc1ccc2ccccc2c1)C(=O)O; AEF = NCCOc1ccc(C[C@H](N)C(=O)O)cc1; dNMeY = CN[C@H](Cc1ccc(O)cc1)C(=O)O; 3Pal = N[C@@H](Cc1cccnc1)C(=O)O; Ethyl(2-guanidino) = N=C(N)NCC*; Myristoyl = CCCCCCCCCCCCCC(=O)*; Lys(Me) = CNCCCC[C@H](N)C(=O)O; X53 = C[N+]1(CCOCCOCC*)CCOCC1; Pen = CC(C)(S)[C@H](N)C(=O)O; αMeK = C[C@](N)(CCCCN)C(=O)O; X8 = C[N+](C)(C)CCCCCCCC*; X31 = N=C(N)NCCOCCC(=O)*; Thp = NC1(C(=O)O)CCOCC1; X3 = C[N+](C)(C)CCCCC*; X72 = C[N+](C)(C)CCCC*; AEEA = NCCOCCOCC(=O)O; Tfa = O=C(C(F)(F)F)*; Sar = CNCC(=O)O

The data set can be described thus: Exposed Polar Surface Area (EPSA). The format is physicochemical. The settings on record: SFC on Chirex 3014 column; sample 1 mM DMSO stock; read-out: EPSA. In outline: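 Compounds, as 1 mM DMSO stock, were injected in duplicate onto an SFC Chirex 3014 column at 35 °C and eluted with a CO2/methanol (20 mM ammonium formate) gradient. EPSA values in Å^2 were derived from retention times using a linear fit to eight calibration standards, reinjected every 20 compounds.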
Regarding `CC(=O)N(C)CCCC[C@@H]1NC(=O)[C@H](Cc2c[nH]c3c(C)cccc23)NC(=O)[C@H]([C@@H](C)O)NC(=O)[C@H](CC(=O)N(C)C)NC(=O)[C@@H](NC(=O)CCOCCOCC[N+](C)(C)C)C(C)(C)SSC(C)(C)[C@@H](C(=O)N[C@@H](Cc2ccc(OCCCC[N+](C)(C)C)cc2)C(=O)N[C@@H](Cc2ccc3ccccc3c2)C(=O)NC2(C(=O)N[C@@H](CCCCN(C)C(C)=O)C(=O)N[C@@H](CC(N)=O)C(=O)N[C@@H](Cc3cccnc3)C(=O)N(C)CC(=O)N(C)C)CCOCC2)NC1=O` [compound 226, cPEG3aCO-Pen(3)-N(N(Me)2)-T-7MeW-K(NMeAc)-Pen(3)-TMA4F-2Nal-THP-K(NMeAc)-N-3Pya-Sar-CON(Me)2] ({Me3N+(CH2)2O(CH2)2O(CH2)2CO}-[Pen]D(NMe2)T[Trp(7-Me)][Lys(Me)](Ac)[Pen]Y(X72)[2Nal][Thp][Lys(Me)](Ac)N[3Pal][Sar]-NMe2; disulfide 1-6), the EPSA worked out at 142 A^2.
With `COCCOCCOCCOCCOCCOCCC(=O)N(CCCC[C@H]1NC(=O)[C@H](Cc2c[nH]c3c(C)cccc23)NC(=O)[C@H]([C@@H](C)O)NC(=O)[C@H](CC(N)=O)NC(=O)[C@@H](NC(C)=O)C(C)(C)SSC(C)(C)[C@@H](C(=O)N[C@@H](Cc2ccc(OCCN)cc2)C(=O)N[C@@H](Cc2ccc3ccccc3c2)C(=O)NC2(C(=O)N[C@@H](CCCCNC(C)=O)C(=O)N[C@@H](CC(N)=O)C(=O)N[C@@H](Cc3cccnc3)C(=O)N(C)CC(N)=O)CCOCC2)NC1=O)C(C)=O` [compound 78] (Ac-[Pen]NT[Trp(7-Me)][X68][Pen][AEF][2Nal][Thp]K(Ac)N[3Pal][Sar]-NH2; disulfide 1-6), the EPSA was determined as 157 A^2.
Take `CC(=O)N(C)CCCC[C@@H]1NC(=O)[C@H](Cc2c[nH]c3c(C)cccc23)NC(=O)[C@H]([C@@H](C)O)NC(=O)[C@H](CC(=O)N(C)C)NC(=O)[C@@H](NC(=O)CCOCCNC(=N)N)C(C)(C)SSC(C)(C)[C@@H](C(=O)N[C@@H](Cc2ccc(OCCOCCOCC[N+](C)(C)C)cc2)C(=O)N[C@@H](Cc2ccc3ccccc3c2)C(=O)NC2(C(=O)N[C@@H](CCCCN(C)C(C)=O)C(=O)N[C@@H](CC(N)=O)C(=O)N[C@@H](Cc3cccnc3)C(=O)N(C)CC(=O)N(C)C)CCOCC2)NC1=O` [compound 413, cPEG2gCO-Pen(3)-N(N(Me)2)-T-7MeW-K(NMeAc)-Pen(3)-APEG3F-2Nal-THP-K(NMeAc)-N-3Pya-Sar-CON(Me)2] (X31-[Pen]D(NMe2)T[Trp(7-Me)][Lys(Me)](Ac)[Pen]Y(CH2CH2OCH2CH2OCH2CH2NMe3+)[2Nal][Thp][Lys(Me)](Ac)N[3Pal][Sar]-NMe2; disulfide 1-6): the EPSA came to 154 A^2.
Under `CC(=O)NCCCC[C@@H]1NC(=O)[C@H](Cc2c[nH]c3c(C)cccc23)NC(=O)[C@H]([C@@H](C)O)NC(=O)[C@H](CC(N)=O)NC(=O)[C@@H](NC(=O)[C@@H](CCCNC(=N)N)NC(=O)CCOCCOCC[N+](C)(C)C)C(C)(C)SSC(C)(C)[C@@H](C(=O)N[C@@H](Cc2ccc(OCCNC(=N)N)cc2)C(=O)N[C@@H](Cc2ccc3ccccc3c2)C(=O)NC2(C(=O)N[C@@H](CCC(=O)O)C(=O)N[C@@H](CC(N)=O)C(=O)N[C@@H](Cc3cncc(C)c3)C(=O)N(C)CC(N)=O)CCOCC2)NC1=O` [compound 508, cPEG3aCO-r-Pen(3)-N-T-7MeW-K(Ac)-Pen(3)-AEF(G)-2Nal-THP-E-N-5MePyridinAla-Sar-CONH2] ({Me3N+(CH2)2O(CH2)2O(CH2)2CO}-[dR][Pen]NT[Trp(7-Me)]K(Ac)[Pen]Y(Ethyl(2-guanidino))[2Nal][Thp]EN[3Pal(5-Me)][Sar]-NH2; disulfide 2-7) stands 197 A^2; under `CC(=O)NCCCC[C@@H]1NC(=O)[C@H](Cc2c[nH]c3c(C)cccc23)NC(=O)[C@H]([C@@H](C)O)NC(=O)[C@H](CC(N)=O)NC(=O)[C@@H](NC(C)=O)C(C)(C)SSC(C)(C)[C@@H](C(=O)N[C@@H](Cc2ccc(OCCOCCOCC[N+]3(C)CCOCC3)cc2)C(=O)N[C@@H](Cc2ccc3ccccc3c2)C(=O)NC2(C(=O)N[C@@H](CCC(=O)O)C(=O)N[C@@H](CC(N)=O)C(=O)N[C@@H](Cc3cccnc3)C(=O)N(C)CC(N)=O)CCOCC2)NC1=O` [compound 432] (Ac-[Pen]NT[Trp(7-Me)]K(Ac)[Pen]Y(X53)[2Nal][Thp]EN[3Pal][Sar]-NH2; disulfide 1-6 (inferred)), 167 A^2; under `CC(=O)NCCCC[C@@H]1NC(=O)[C@H](Cc2c[nH]c3c(C)cccc23)NC(=O)[C@H]([C@@H](C)O)NC(=O)[C@H](CC(N)=O)NC(=O)[C@@H](NC(=O)[C@@H](CCCNC(=N)N)NC(C)=O)C(C)(C)SSC(C)(C)[C@@H](C(=O)N[C@@H](Cc2ccc(OCCN)cc2)C(=O)N[C@@H](Cc2ccc3ccccc3c2)C(=O)N[C@@](C)(CCCCN)C(=O)N[C@@H](CCC(=O)O)C(=O)N[C@@H](CC(N)=O)C(=O)N[C@@H](Cc2c[nH]cn2)C(=O)N(C)[C@H](Cc2ccc(O)cc2)C(N)=O)NC1=O` [compound 9, MeCO-r-Pen(3)-N-T-7MeW-K(Ac)-Pen(3)-AEF-2Nal-aMeK-E-N-H-NMeDTyr-CONH2] (Ac-[dR][Pen]NT[Trp(7-Me)]K(Ac)[Pen][AEF][2Nal][αMeK]ENH[dNMeY]-NH2; disulfide 2-7), 187 A^2.
The value for `CCCCCCCCCCCCCC(=O)N[C@@H](CCC(=O)NCCOCCOCC(=O)NCCOCCOCC(=O)NCCCC[C@@H]1NC(=O)[C@@H](NC(=O)CCOCCOCC[N+](C)(C)C)C(C)(C)SSC(C)(C)[C@@H](C(=O)N[C@@H](Cc2ccc(OCCCCC[N+](C)(C)C)cc2)C(=O)N[C@@H](Cc2ccc3ccccc3c2)C(=O)NC2(C(=O)N[C@@H](CCCCN(C)C(C)=O)C(=O)N[C@@H](CC(N)=O)C(=O)N[C@@H](Cc3cccnc3)C(=O)N(C)CC(=O)N(C)C)CCOCC2)NC(=O)[C@H](CCCCN(C)C(C)=O)NC(=O)[C@H](Cc2c[nH]c3c(C)cccc23)NC(=O)[C@H]([C@@H](C)O)NC1=O)C(=O)O` [compound 388, cPEG3aCO-Pen(3)-K(PEG2PEG2gEC14)-T-7MeW-K(NMeAc)-Pen(3)-TMAPF-2Nal-THP-K(NMeAc)-N-3Pya-Sar-CON(Me)2] ({Me3N+(CH2)2O(CH2)2O(CH2)2CO}-[Pen]K([AEEA-AEEA-γGlu-Myristoyl])T[Trp(7-Me)][Lys(Me)](Ac)[Pen]Y(X3)[2Nal][Thp][Lys(Me)](Ac)N[3Pal][Sar]-NMe2; disulfide 1-6) was 161 A^2; that for `CC(=O)NCCCC[C@@H]1NC(=O)[C@H](Cc2c[nH]c3c(C)cccc23)NC(=O)[C@H]([C@@H](C)O)NC(=O)[C@H](CC(N)=O)NC(=O)[C@@H](NC(C)=O)C(C)(C)SSC(C)(C)[C@@H](C(=O)N[C@@H](Cc2ccc(OCCCCCCCC[N+](C)(C)C)cc2)C(=O)N[C@@H](Cc2ccc3ccccc3c2)C(=O)NC2(C(=O)N[C@@H](CCC(=O)O)C(=O)N[C@@H](CC(N)=O)C(=O)N[C@@H](Cc3cccnc3)C(=O)N(C)CC(N)=O)CCOCC2)NC1=O` [compound 457] (Ac-[Pen]NT[Trp(7-Me)]K(Ac)[Pen]Y(X8)[2Nal][Thp]EN[3Pal][Sar]-NH2; disulfide 1-6 (inferred)) was 163 A^2; that for `CC(=O)NCCCC[C@@H]1NC(=O)[C@H](Cc2c[nH]c3c(C)cccc23)NC(=O)[C@H]([C@@H](C)O)NC(=O)[C@H](CC(N)=O)NC(=O)[C@@H](NC(C)=O)C(C)(C)SSC(C)(C)[C@@H](C(=O)N[C@@H](Cc2ccc(N=[N+]=[N-])cc2)C(=O)N[C@@H](Cc2ccc3ccccc3c2)C(=O)NC2(C(=O)N[C@@H](CCC(=O)O)C(=O)N[C@@H](CC(N)=O)C(=O)N[C@@H](Cc3cccnc3)C(=O)N(C)CC(N)=O)CCOCC2)NC1=O` [compound 435] (Ac-[Pen]NT[Trp(7-Me)]K(Ac)[Pen][Phe(4-N3)][2Nal][Thp]EN[3Pal][Sar]-NH2; disulfide 1-6 (inferred)) was 182 A^2.
In the case of `COCCOCCOCCOCCOCCOCCNCCOc1ccc(C[C@H](NC(=O)[C@H]2NC(=O)[C@H](CCCCNC(C)=O)NC(=O)[C@H](Cc3c[nH]c4c(C)cccc34)NC(=O)[C@H]([C@@H](C)O)NC(=O)[C@H](CC(N)=O)NC(=O)[C@@H](NC(C)=O)C(C)(C)SSC2(C)C)C(=O)N[C@@H](Cc2ccc3ccccc3c2)C(=O)NC2(C(=O)N[C@@H](CCCCNC(C)=O)C(=O)N[C@@H](CC(N)=O)C(=O)N[C@@H](Cc3cccnc3)C(=O)N(C)CC(N)=O)CCOCC2)cc1` [compound 65], the EPSA was determined as 154 A^2.
Turning to `COCCOCCOCCOCCOCCOCCC(=O)N(CCCC[C@@H](NC(=O)C1(NC(=O)[C@H](Cc2ccc3ccccc3c2)NC(=O)[C@H](Cc2ccc(OCCN)cc2)NC(=O)[C@H]2NC(=O)[C@H](CCCCNC(C)=O)NC(=O)[C@H](Cc3c[nH]c4c(C)cccc34)NC(=O)[C@H]([C@@H](C)O)NC(=O)[C@H](CC(N)=O)NC(=O)[C@@H](NC(C)=O)C(C)(C)SSC2(C)C)CCOCC1)C(=O)N[C@@H](CC(N)=O)C(=O)N[C@@H](Cc1cccnc1)C(=O)N(C)CC(N)=O)C(C)=O` [compound 123] (Ac-[Pen]NT[Trp(7-Me)]K(Ac)[Pen][AEF][2Nal][Thp][X68]N[3Pal][Sar]-NH2; disulfide 1-6), the EPSA came out at 156 A^2.
In the case of `CC(=O)NCCCC[C@@H]1NC(=O)[C@H](Cc2c[nH]c3c(C)cccc23)NC(=O)[C@H]([C@@H](C)O)NC(=O)[C@H](CC(N)=O)NC(=O)[C@@H](NC(=O)C(F)(F)F)C(C)(C)SSC(C)(C)[C@@H](C(=O)N[C@@H](Cc2ccc(OCCN)cc2)C(=O)N[C@@H](Cc2ccc3ccccc3c2)C(=O)NC2(C(=O)N[C@@H](CCc3nnn(C)n3)C(=O)N[C@@H](CC(N)=O)C(=O)N[C@@H](Cc3cccnc3)C(=O)N(C)CC(N)=O)CCOCC2)NC1=O` [compound 76] (Tfa-[Pen]NT[Trp(7-Me)]K(Ac)[Pen][AEF][2Nal][Thp][X23]N[3Pal][Sar]-NH2; disulfide 1-6), the EPSA turned out to be 161 A^2.
Under `CC(=O)NCCCC[C@@H]1NC(=O)[C@H](Cc2c[nH]c3c(C)cccc23)NC(=O)[C@H]([C@@H](C)O)NC(=O)[C@H](CC(N)=O)NC(=O)[C@@H](NC(C)=O)C(C)(C)SSC(C)(C)[C@@H](C(=O)N[C@@H](Cc2ccc(OCCN)cc2)C(=O)N[C@@H](Cc2ccc3ccccc3c2)C(=O)N[C@@](C)(CCCCN)C(=O)N[C@@H](CCCCNC(C)=O)C(=O)N[C@@H](CC(N)=O)C(=O)N[C@H](Cc2ccccc2)C(=O)N(C)[C@H](Cc2ccc(O)cc2)C(N)=O)NC1=O` [compound 20, MeCO-Pen(3)-N-T-7MeW-K(Ac)-Pen(3)-AEF-2Nal-aMeK-K(Ac)-N-f-NMeDTyr-CONH2] (Ac-[Pen]NT[Trp(7-Me)]K(Ac)[Pen][AEF][2Nal][αMeK]K(Ac)N[dF][dNMeY]-NH2; disulfide 1-6 (inferred)) stands 168 A^2.

(Values after patent US20260022143A1, “Cyclic Peptide Inhibitors of IL-23” (JANSSEN PHARMACEUTICA NV, priority 2022, published 2026).)
